According to patent publication US8748435B2, “Pyrazolo pyrimidine derivatives” (Novartis AG, priority 2011, dated 2014):
Counter-ions that a name gives are not always drawn.

Experiments:
[1] = biological target: rat GPR4 (Rattus norvegicus (Rat), UniProt Q4KLH9); assay: Rat GPR4 cAMP assay; type: cell-based; settings: read-out: r cAMP IC50
Description: (§1) HeLa cells stably expressing human GPR4 were established by transfecting the cells with a construct containing the human GPR4 coding sequence. The cells were grown in Dulbecco's Modified Eagle Medium (DMEM)/HAM's tissue culture medium F12 (HAM's F12) supplemented with 10% fetal calf serum (FCS), 100 u/ml penicillin, 100 μg/ml streptomycin and 400 μg/ml G418 and 10 mM Hepes pH 8.0. pH-induced formation of cAMP was determined using the homogeneous time resolved fluorescence (HTRF) technology as provided by CisBio Inc. The cells were seeded in 384-well plates and cultured for 24 hours at 37° C., 5% CO2 before performing the assay. Medium was removed and 10 μl buffer A (Hepes buffered saline (HBS), 10 mM Hepes, pH 8, 2 mM 3-Isobutyl-1-methylxanthin (IBMX)) was added. For compound testing, buffer A with 2× concentrated compounds was used. Cells were incubated for 15 min at room temperature. 10 μl buffer B (HBS, 30 mM Hepes, specific pH) was added to reach the appropriate final pH for stimulation (see below) and incubation was continued for 15 min at room temperature. […] HBS: 130 mM NaCl, 0.9 mM NaH2 PO4, 5.4 mM KCl, 0.8 mM MgSO4, CaCl2 1.8 mM, 25 mM glucose, 10-30 mM Hepes. Adjustment of HBS buffers:
(§2) Compounds were diluted from fresh stock solutions at 10 mM in DMSO to 2 mM and then used for serial dilutions in DMSO.
(§3) In a similar manner, assays for the mouse (m) and rat (r) GPR4 receptors have been established.

[2] = biological target: T1, human GPR4 (Homo sapiens (Human), UniProt P46093); assay: Human GPR4 binding assay ([3H]4 radioligand, membranes of 300.19 cells expressing human GPR4); settings: radioligand [3H]4 (example 39), membranes of 300.19 cells expressing human GPR4
T1 sequence (P46093 whole entry): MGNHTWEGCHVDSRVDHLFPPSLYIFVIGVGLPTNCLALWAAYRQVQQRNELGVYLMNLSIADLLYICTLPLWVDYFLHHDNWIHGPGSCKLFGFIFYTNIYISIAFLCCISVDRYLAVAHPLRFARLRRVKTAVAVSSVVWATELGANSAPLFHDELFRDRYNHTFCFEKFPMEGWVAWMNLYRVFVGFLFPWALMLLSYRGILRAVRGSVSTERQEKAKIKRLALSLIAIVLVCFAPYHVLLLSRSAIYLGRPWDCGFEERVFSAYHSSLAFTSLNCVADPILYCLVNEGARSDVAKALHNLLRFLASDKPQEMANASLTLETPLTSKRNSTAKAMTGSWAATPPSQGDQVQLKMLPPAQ
Description: a) Human GPR4 Binding Assay
(§4) Cells were grown in T175 flasks to a density of about 1×10^6 cells/mL in growth medium. The cells were harvested by centrifugation (3000 rpm for 30 minutes at 4° C.) and the pellet resuspended in ice cold buffer A (20 mM HEPES pH 7.8, 10 mM EDTA, 100 mM NaCl, 1 tab/40 mL protease inhibitor complete). […] The homogenate was centrifuged at 18000 rpm for 50 min at 4° C. and the membrane protein pellet resuspended in cold buffer A using the Polytron (2×20 seconds). The protein concentration is determined using the Bio Rad Protein Assay and human IgG as standard. The volume of the membrane protein suspension is adjusted to a final concentration of about 2 mg protein/mL. The suspension is then once again homogenized (Polytron) on ice at 25000 rpm for 20 seconds before being aliquoted and stored at −80° C.
(§5) Radio Ligand Binding Assay: Serial dilutions of compounds (stock in 10 mM DMSO) are prepared by first diluting the compounds in DMSO followed by a 1:50 dilution into assay buffer (10 mM HEPES, pH 8.0, 100 mM NaCl, 5 mM MgCl2, 1 mM CaCl2, 0.5% fatty acid-free BSA, 0.05% Tween-20). […] The desired amount of membranes (20 μg/well) is diluted with assay buffer. […] 100 μL of the membrane-suspension is added and the plate stirred for 60 minutes. […] The filter plate is washed 5 times with ice-cold wash buffer, dried and sealed at the bottom. Then 20 μL of Microscint 40 is added into each well and the top of the plate is sealed. Finally the plate is counted for 2 min/well in a TopCount NXT instrument (Packard Instruments). The data are analyzed using the GraphPad Prism™ software.

[3] = biological target: mouse GPR4 (Mus musculus (Mouse), UniProt Q8BUD0); assay: Mouse GPR4 cAMP assay; type: cell-based
Chain of mouse GPR4 (Q8BUD0 whole entry): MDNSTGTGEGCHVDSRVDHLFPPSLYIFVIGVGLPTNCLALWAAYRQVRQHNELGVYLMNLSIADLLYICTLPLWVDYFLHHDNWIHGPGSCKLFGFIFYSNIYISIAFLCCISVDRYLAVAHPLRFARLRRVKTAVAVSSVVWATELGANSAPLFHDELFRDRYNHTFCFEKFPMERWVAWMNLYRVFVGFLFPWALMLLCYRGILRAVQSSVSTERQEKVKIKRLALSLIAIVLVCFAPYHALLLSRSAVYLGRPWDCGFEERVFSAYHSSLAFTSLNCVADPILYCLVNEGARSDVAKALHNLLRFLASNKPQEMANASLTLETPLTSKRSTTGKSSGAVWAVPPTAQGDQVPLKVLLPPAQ
Description: as §1, §2, §3

[4] = system: antigen-induced arthritis (knee swelling); assay: Rat antigen-induced arthritis model; type: in vivo; settings: oral gavage, AUC of R/L knee swelling ratio vs control
Description: e) GPR4 Activity in Rat Antigen-induced Arthritis Model Female Lewis rats were sensitised intradermally on the back at two sites to methylated bovine serum albumin (mBSA) homogenised 1:1 with complete Freund's adjuvant on days −21 and −14 (0.1 ml containing 1 mg/ml mBSA). On day 0, the right knee received […] of 10 mg/ml mBSA in 5% glucose solution (antigen injected knee), while the left knee received […] of 5% glucose solution alone (vehicle injected knee). The diameters of the left and right knees were then measured using calipers immediately after the intra-articular injections and again on days 2, 4 and 7. The compounds of the invention were administered twice daily by oral gavage; vehicle (saline) at 5 ml/kg, and dexamethasone at 0.3 mg/kg was given as a control. Right knee swelling was calculated as a ratio of left knee swelling, and the R/L knee swelling ratio plotted against time to give Area Under the Curve (AUC) graphs for control and treatment groups. The percentage inhibition of the individual treatment group AUCs were calculated vs the control group AUC (0% inhibition).

[5] = biological target: T1, human GPR4; assay: Human GPR4 binding assay with additional human serum albumin (4% HSA); settings: binding assay with 4% HSA
Description: as §4, §5
In a similar manner, a binding assay with additional human serum albumin (4% HSA) has been established.

[6] = biological target: Human H3 (Homo sapiens (Human), UniProt Q9Y5N1); assay: Human H3 binding assay (SPA, [3H]-R-alpha-Methylhistamine); settings: 3 nM [3H]-R-alpha-Methylhistamine
Chain of Human H3 (Q9Y5N1 whole entry): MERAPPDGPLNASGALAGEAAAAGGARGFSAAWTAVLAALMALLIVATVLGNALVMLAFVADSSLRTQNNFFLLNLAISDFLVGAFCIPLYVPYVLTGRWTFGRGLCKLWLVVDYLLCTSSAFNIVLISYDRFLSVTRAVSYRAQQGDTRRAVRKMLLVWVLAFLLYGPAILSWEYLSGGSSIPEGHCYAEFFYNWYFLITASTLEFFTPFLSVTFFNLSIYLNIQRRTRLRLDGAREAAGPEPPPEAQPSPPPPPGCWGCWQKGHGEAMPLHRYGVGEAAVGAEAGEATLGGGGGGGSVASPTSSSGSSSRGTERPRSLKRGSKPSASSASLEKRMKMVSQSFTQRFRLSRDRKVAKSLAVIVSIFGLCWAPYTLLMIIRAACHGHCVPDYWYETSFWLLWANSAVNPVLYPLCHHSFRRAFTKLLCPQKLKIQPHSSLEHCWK
Description: c) Human H3 Binding Assay
The Scintillation Proximity Binding Assay (SPA) assay was performed in a final volume of 50 μL per well in a 384-well polystyrene plate.
The final concentration of the radioligand was 3 nM. • 20 μL of a beads (PVT-WGA type A) and membranes mixed suspension in assay buffer, in order to get a final concentration of 10 μg/well of membranes and 200 μg/well of beads. As an example, 1471 μL membranes (Conc.: 5.1 mg/mL) and 1500 μL of bead suspension (Conc.: 100 mg/mL) are diluted to a final volume of 15 mL of assay buffer.
The plates were sealed and shaken at room temperature, then allowed to stand at room temperature for at least 1 hour. The plates were counted using a Perkin Elmer TopCount reader, each well being counted for 1 minute.

[7] = biological target: T1, human GPR4; assay: Cell-based assay for human GPR4 activity (pH-induced cAMP formation, HTRF, HeLa cells); settings: HeLa cells stably expressing human GPR4, pH-induced cAMP
Description: b) Cell-Based Assay for Human GPR4 Activity
as §1, §2

[8] = system: CFA-induced hyperalgesia; assay: Established rat hyperalgesia model (CFA); type: in vivo; settings: gavage
Description: f) Established Rat Hyperalgesia Model
Naïve withdrawal thresholds of both hind paws were determined by using an increasing pressure stimulus placed onto the dorsal surface of each paw using an analgesymeter. Delayed inflammatory pain was then induced by intra-plantar injection of 25 μl of complete Freund's adjuvant (CFA) into one hindpaw with the contralateral paw acting as the control. […] One hour later, paw withdrawal thresholds were re-measured on both the ipsilateral (CFA-injected) and contralateral (uninjected) paw; measurements were repeated at 3 hrs and 6 hrs post dosing. The reversal of hyperalgesia was calculated using the following formula: Reversal (%)=100×(postdose ipsilateral threshold−predose ipsilateral threshold) (naïve ipsilateral threshold−predose ipsilateral threshold).

Chain of rat GPR4 (Q4KLH9 whole entry): as the sequence (Q8BUD0 whole entry) above, with G8W, H51R, S339T counted along it

| SMILES | IC50 [1] | IC50 [2] | IC50 [3] | Inhibition of swelling ([4]; 30 mg/kg bid) | Inhibition of swelling ([4]; 60 mg/kg bid) | IC50 [5] | IC50 [6] | IC50 [7] | Inhibition of swelling ([4]; 90 mg/kg bid) | % reversal of hyperalgesia ([8]; 3 mg/kg, 1 h) | % reversal of hyperalgesia ([8]; 3 mg/kg, 3 h) | % reversal of hyperalgesia ([8]; 3 mg/kg, 6 h) | % reversal of hyperalgesia ([8]; 10 mg/kg, 1 h) | % reversal of hyperalgesia ([8]; 10 mg/kg, 3 h) | % reversal of hyperalgesia ([8]; 10 mg/kg, 6 h) | % reversal of hyperalgesia ([8]; 30 mg/kg, 1 h) | % reversal of hyperalgesia ([8]; 30 mg/kg, 3 h) | % reversal of hyperalgesia ([8]; 30 mg/kg, 6 h) |
| --- | --- | --- | --- | --- | --- | --- | --- | --- | --- | --- | --- | --- | --- | --- | --- | --- | --- | --- |
| CCc1nn2c(C)cc(C)nc2c1Cc1ccc(-n2cc(CN3CCNCC3)cn2)cc1 [Example 31, 2-Ethyl-5,7-dimethyl-3-[4-(4-piperazin-1-ylmethyl-pyrazol-1-yl)-benzyl]-pyrazolo[1,5-a]pyrimidine] | 1330 nM | 43 nM | 511 nM | 24% | 38% | 61 nM | > 30000 nM | 53 nM |  |  |  |  |  |  |  |  |  |  |
| CCc1nn2c(C)cc(C)nc2c1Cc1ccc(-n2cc(CN3CC(O)C3)cn2)cc1 [Example 28, 1-{1-[4-(2-Ethyl-5,7-dimethyl-pyrazolo[1,5-a]pyrimidin-3-ylmethyl)-phenyl]-1H-pyrazol-4-ylmethyl}-azetidin-3-ol] | 2300 nM | 118 nM | 687 nM |  |  | 180 nM | 20000 nM | 49 nM | 25% |  |  |  |  |  |  |  |  |  |
| CCc1nn2c(C)cc(C)nc2c1Cc1ccc(/C=C/CN2CCN(C[C@@H](O)CO)CC2)cc1.Cl.Cl [Example 17, (R)-3-(4-{(E)-3-[4-(2-Ethyl-5,7-dimethyl-pyrazolo[1,5-a]pyrimidin-3-ylmethyl)-phenyl]-allyl}-piperazin-1-yl)-propane-1,2-diol dihydrochloride] |  |  |  | 36% |  |  |  |  |  | 28% | 18% | 3% | 36% | 29% | 7% | 55% | 32% | 15% |
| CCc1nn2c(C)cc(C)nc2c1Cc1ccc(/C=C/CN2CCN[C@H](CO)C2)cc1 [Example 8, ((S)-4-{(E)-3-[4-(2-Ethyl-5,7-dimethyl-pyrazolo[1,5-a]pyrimidin-3-ylmethyl)-phenyl]-allyl}-piperazin-2-yl)-methanol dihydrochloride] | 670 nM | 28 nM | 378 nM |  |  | 51 nM | > 30000 nM | 34 nM | 30% |  |  |  |  |  |  |  |  |  |
| CCc1nn2c(C)cc(C)nc2c1Cc1ccc(OC[C@H]2CC[C@@H](N)CC2)cc1 [Example 23, 4-[4-(2-Ethyl-5,7-dimethyl-pyrazolo[1,5-a]pyrimidin-3-ylmethyl)-phenoxymethyl]-cyclohexylamine] | 1410 nM |  | 262 nM | 24% |  | 19 nM | > 30000 nM | 21 nM |  |  |  |  |  |  |  |  |  |  |
| CCc1nn2c(C)cc(C)nc2c1Cc1ccc(-c2nnc(C3CCN(C(=O)[C@H](CO)NC)CC3)o2)cc1 [Example 38, (S)-1-(4-{5-[4-(2-Ethyl-5,7-dimethyl-pyrazolo[1,5-a]pyrimidin-3-ylmethyl)-phenyl]-[1,3,4]oxadiazol-2-yl}-piperidin-1-yl)-3-hydroxy-2-methylamino-propan-1-one hydrochloride] | 811 nM | 15 nM | 180 nM |  |  | 29 nM | > 30000 nM | 45 nM |  |  |  |  |  |  |  |  |  |  |
